Data published in ChEMBL document CHEMBL2424642, “Heterocyclic glucocorticoid receptor modulators with a 2,2-dimethyl-3-phenyl-N-(thiazol or thiadiazol-2-yl)propanamide core” (Bioorg Med Chem Lett, 2013).

Tests used:
[1] = target: T1, Glucocorticoid receptor (GR-LBD) (Homo sapiens, UniProt P04150); test: (§1) Transactivation of GR-LBD expressed in human HeLa cells co-expressing GAL4-DBD by luciferase reporter gene assayrelative to dexamethasone; assay type: cell-based; conditions: HeLa cells expressing GR-LBD and GAL4-DBD, read-out: Efficacy
T1 sequence (P04150 whole entry): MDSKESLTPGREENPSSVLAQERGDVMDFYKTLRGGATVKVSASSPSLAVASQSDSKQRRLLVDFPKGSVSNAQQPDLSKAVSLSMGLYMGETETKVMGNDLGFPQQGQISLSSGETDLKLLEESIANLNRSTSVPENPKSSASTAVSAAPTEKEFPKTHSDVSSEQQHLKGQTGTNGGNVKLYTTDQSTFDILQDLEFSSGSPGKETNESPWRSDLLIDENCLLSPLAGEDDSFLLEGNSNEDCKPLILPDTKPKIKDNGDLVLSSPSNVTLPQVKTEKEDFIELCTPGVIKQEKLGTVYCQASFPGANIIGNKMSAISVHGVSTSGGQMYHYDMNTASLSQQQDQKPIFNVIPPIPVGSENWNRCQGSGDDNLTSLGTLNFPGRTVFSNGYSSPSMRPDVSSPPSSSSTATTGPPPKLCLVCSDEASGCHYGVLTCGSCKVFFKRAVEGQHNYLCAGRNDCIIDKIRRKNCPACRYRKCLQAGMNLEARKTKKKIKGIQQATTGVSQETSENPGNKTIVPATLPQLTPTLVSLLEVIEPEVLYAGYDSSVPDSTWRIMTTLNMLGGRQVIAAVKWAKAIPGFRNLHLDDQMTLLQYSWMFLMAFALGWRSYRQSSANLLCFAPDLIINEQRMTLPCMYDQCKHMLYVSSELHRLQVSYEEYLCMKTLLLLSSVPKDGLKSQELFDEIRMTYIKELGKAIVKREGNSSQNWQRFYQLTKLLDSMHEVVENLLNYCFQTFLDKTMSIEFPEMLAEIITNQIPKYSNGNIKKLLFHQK

[2] = target: T2, Glucocorticoid receptor (Homo sapiens, UniProt P04150); test: Transactivation of GR-LBD expressed in human HeLa cells co-expressing GAL4-DBD by luciferase reporter gene assay; assay type: cell-based
T2 sequence (P04150 whole entry): T1 sequence (P04150 whole entry)

[3] = target: T2, Glucocorticoid receptor; test: Transrepression of glucocorticoid receptor in human A549 cells assessed as inhibition of PMA-induced AP-1 activity by luciferase reporter gene assay; assay type: cell-based
[4] = target: T2, Glucocorticoid receptor; test: Binding affinity to glucocorticoid receptor-LBD (unknown origin) by fluorescence polarization assay
[5] = target: T3, Glucocorticoid receptor (Homo sapiens) (UniProt P04150); test: Transrepression of glucocorticoid receptor in human A549 cells assessed as inhibition of PMA-induced AP-1 activity by luciferase reporter gene assay relative to dexamethasone; assay type: cell-based
T3 sequence (whole entry): T1 sequence (P04150 whole entry)

[6] = target: T2, Glucocorticoid receptor; test: as §1; assay type: cell-based; conditions: hela

Row | Emax [1] | EC50 [2] | EC50 [3] | Ki [4] | Efficacy [5] | Efficacy [6] | SMILES
1 | 43% | 613 nM | 254 nM | 1 nM |  |  | CC(C)(C(=O)Nc1nncs1)C(c1ccccc1)c1ccn2c(-c3ccccc3)ncc2c1 (single isomer, unassigned; enantiomer 2) [listing 1 of 2 here]
2 |  | > 10000 nM | 225 nM | 4 nM | 30% |  | CC(C)(C(=O)Nc1nccs1)C(c1ccccc1)c1ccc2c(-c3cccc(C#N)c3)ncn2c1 (centres undefined)
3 |  |  |  |  | 66% |  | CC(C)(C(=O)Nc1nccs1)C(c1ccccc1)c1ccc2c(-c3ccc(F)cc3)ncn2c1 (centres undefined) [listing 1 of 2 here]
4 |  |  | 220 nM |  | 60% |  | CC(C)(C(=O)Nc1nccs1)C(c1ccccc1)c1ccc2c(ccn2-c2ccc(F)cc2)c1 (centres undefined)
5 |  |  | > 10000 nM | 15 nM |  |  | CC(C)(C(=O)Nc1nccs1)C(c1ccccc1)c1ccc2cnccc2c1 (centres undefined)
6 |  | > 10000 nM | 111 nM | 5 nM | 20% |  | CC(C)(C(=O)Nc1nncs1)C(c1ccccc1)c1ccc2c(-c3ccc(F)c(Cl)c3)ncn2c1 (centres undefined)
7 |  |  |  |  | 24% |  | CC(C)(C(=O)Nc1nncs1)C(c1ccccc1)c1ccc2c(-c3ccc(F)cc3)ncn2c1 (single isomer, unassigned; enantiomer 1) [listing 1 of 2 here]
8 |  |  |  |  | 72% |  | CC(C)(C(=O)Nc1nncs1)C(c1ccccc1)c1ccc2c(-c3ccc(F)cc3)ncn2c1 (single isomer, unassigned; enantiomer 2) [listing 2 of 2 here]
9 |  |  |  |  | 34% |  | CC(C)(C(=O)Nc1nncs1)C(c1ccccc1)c1ccn2c(-c3ccccc3)ncc2c1 (single isomer, unassigned; enantiomer 1) [listing 1 of 2 here]
10 |  |  | > 10000 nM | 196 nM |  |  | CC(C)(C(=O)Nc1nncs1)C(c1ccccc1)c1cc(-c2ccc(F)cc2)c2ncccc2c1 (centres undefined)
11 |  |  |  |  | 68% |  | CC(C)(C(=O)Nc1nncs1)C(c1ccccc1)c1ccc2c(-c3ccc(F)cc3)ncn2c1 (centres undefined) [listing 2 of 2 here]
12 |  | > 10000 nM | > 5000 nM | 4 nM |  |  | CC(C)(C(=O)Nc1nccs1)C(c1ccccc1)c1ccc2c(-c3ccc(F)cc3)ncn2c1 (single isomer, unassigned; enantiomer 1)
13 |  | 60 nM | 6 nM | 1 nM |  | 69% | CC(C)(C(=O)Nc1nccs1)C(c1ccccc1)c1ccc2c(-c3ccc(F)cc3)ncn2c1 (single isomer, unassigned; enantiomer 2) [listing 1 of 2 here]
14 |  |  |  |  | 73% |  | CC(C)(C(=O)Nc1nccs1)C(c1ccccc1)c1ccc2c(-c3ccc(F)cc3)ncn2c1 (single isomer, unassigned; enantiomer 2) [listing 2 of 2 here]
15 |  |  | 230 nM | 7 nM | 61% |  | CC(C)(C(=O)Nc1nccs1)C(c1ccccc1)c1ccc2[nH]ccc2c1 (centres undefined)
16 |  |  | > 10000 nM | 85 nM |  |  | CC(C)(C(=O)Nc1nccs1)C(c1ccccc1)c1ccc2ncccc2c1 (centres undefined)

More lines, now with the values behind:

Row | SMILES | Emax [1] | EC50 [2] | EC50 [3] | Ki [4] | Efficacy [5] | Efficacy [6]
17 | CC(C)(C(=O)Nc1nccs1)C(c1ccccc1)c1ccc2cncn2c1 (centres undefined) |  |  | > 10000 nM |  |  | 
18 | CC(C)(C(=O)Nc1nncs1)C(c1ccccc1)c1ccn2c(-c3ccccc3)ncc2c1 (centres undefined) [listing 1 of 2 here] |  |  |  |  | 66% | 
19 | CC(C)(C(=O)Nc1nccs1)C(c1ccccc1)c1ccc2nncn2c1 (centres undefined) |  |  | > 10000 nM |  |  | 
20 | CC(C)(C(=O)Nc1nncs1)C(c1ccccc1)c1ccc2c(-c3ccc(F)cc3)ncn2c1 (centres undefined) [listing 1 of 2 here] | 66% | 262 nM | 36 nM | 3 nM |  | 
21 | CC(C)(C(=O)Nc1nccs1)C(c1ccccc1)c1ccn2cncc2c1 (centres undefined) |  |  | 1200 nM | 18 nM | 39% | 
22 | CC(C)(C(=O)Nc1nncs1)C(c1ccccc1)c1ccc2c(-c3ccc(F)cc3)ncn2c1 (single isomer, unassigned; enantiomer 2) [listing 1 of 2 here] |  | 118 nM | 24 nM | 2 nM |  | 65%
23 | CC(C)(C(=O)Nc1nccs1)C(c1ccccc1)c1ccc2c(-c3ccc(F)cc3)ncn2c1 (centres undefined) [listing 2 of 2 here] | 74% | 103 nM | 16 nM | 3 nM |  | 
24 | CC(C)(C(=O)Nc1nccs1)C(c1ccccc1)c1ccn2c(-c3ccccc3)ncc2c1 (single isomer, unassigned; enantiomer 1) |  | > 10000 nM | > 2500 nM | 11 nM |  | 
25 | CC(C)(C(=O)Nc1nncs1)C(c1ccccc1)c1ccn2c(-c3ccccc3)ncc2c1 (centres undefined) [listing 2 of 2 here] |  | 2000 nM | 899 nM | 3 nM |  | 30%
26 | CC(C)(C(=O)Nc1nccs1)C(c1ccccc1)c1ccc2c(-c3ccc(C#N)cc3)ncn2c1 (centres undefined) |  | > 10000 nM | 89 nM | 4 nM | 37% | 
27 | CC(C)(C(=O)Nc1nncs1)C(c1ccccc1)c1ccc2c(-c3cccc(C#N)c3)ncn2c1 (centres undefined) |  | > 10000 nM | 1350 nM | 4 nM | 32% | 
28 | CC(C)(C(=O)Nc1nncs1)C(c1ccccc1)c1ccc2c(-c3cccc(CO)c3)ncn2c1 (centres undefined) |  | > 10000 nM | > 5000 nM | 5 nM |  | 
29 | CC(C)(C(=O)Nc1nncs1)C(c1ccccc1)c1ccc2c(-c3ccc(C#N)cc3)ncn2c1 (centres undefined) |  | > 10000 nM | 140 nM | 2 nM | 37% | 
30 | CC(C)(C(=O)Nc1nccs1)C(c1ccccc1)c1cc(-c2ccc(F)cc2)c2ncccc2c1 (centres undefined) |  |  | > 10000 nM | 285 nM |  | 
31 | CC(C)(C(=O)Nc1nccs1)C(c1ccccc1)c1ccn2c(-c3ccccc3)ncc2c1 (centres undefined) [listing 1 of 2 here] |  |  |  |  | 70% | 
32 | CC(C)(C(=O)Nc1nncs1)C(c1ccccc1)c1ccc2c(-c3ccc(F)cc3F)ncn2c1 (centres undefined) | 61% | 117 nM | 15 nM | 1 nM | 69% | 
33 | CC(C)(C(=O)Nc1nccs1)C(c1ccccc1)c1ccc2c(-c3ccc(F)cc3F)ncn2c1 (centres undefined) | 73% | 78 nM | 14 nM | 2 nM | 75% | 
34 | CC(C)(C(=O)Nc1nccs1)C(c1ccccc1)c1ccn2c(-c3ccccc3)ncc2c1 (centres undefined) [listing 2 of 2 here] | 32% | 360 nM | 60 nM | 5 nM |  | 
35 | CC(C)(C(=O)Nc1nncs1)C(c1ccccc1)c1ccn2c(-c3ccccc3)ncc2c1 (single isomer, unassigned; enantiomer 2) [listing 2 of 2 here] |  |  |  |  | 61% | 
36 | CC(C)(C(=O)Nc1nccs1)C(c1ccccc1)c1ccc2c(-c3ccc(F)c(Cl)c3)ncn2c1 (centres undefined) |  | > 10000 nM | 114 nM | 8 nM | 26% | 
37 | CC(C)(C(=O)Nc1nncs1)C(c1ccccc1)c1ccn2c(-c3ccccc3)ncc2c1 (single isomer, unassigned; enantiomer 1) [listing 2 of 2 here] |  | > 10000 nM | 1120 nM | 5 nM |  | 
38 | CC(C)(C(=O)Nc1nncs1)C(c1ccccc1)c1ccc2c(-c3ccc(F)cc3)ncn2c1 (single isomer, unassigned; enantiomer 1) [listing 2 of 2 here] |  | > 10000 nM | 1200 nM | 6 nM |  | 
